Legend:
human CRTH2 = molecular target: T1, human CRTH2 (Homo sapiens, UniProt Q9Y5Y4); assay: Measurement of Ca2+ mobilization in the human CRTH2-transfected L1.2 cell line (Assay 1); type: cell-based; conditions: PGD2-induced Ca2+ mobilization in CRTH2-transfected L1.2 cells; compounds as yielded by solid phase synthesis, purity about 40 to 90%; read-out: Activity class
T1 construct: expressed in transfected cells; host or cells: L1.2 cells, pEAK expression vector, puromycin-selected
T1 sequence (Q9Y5Y4 1-395): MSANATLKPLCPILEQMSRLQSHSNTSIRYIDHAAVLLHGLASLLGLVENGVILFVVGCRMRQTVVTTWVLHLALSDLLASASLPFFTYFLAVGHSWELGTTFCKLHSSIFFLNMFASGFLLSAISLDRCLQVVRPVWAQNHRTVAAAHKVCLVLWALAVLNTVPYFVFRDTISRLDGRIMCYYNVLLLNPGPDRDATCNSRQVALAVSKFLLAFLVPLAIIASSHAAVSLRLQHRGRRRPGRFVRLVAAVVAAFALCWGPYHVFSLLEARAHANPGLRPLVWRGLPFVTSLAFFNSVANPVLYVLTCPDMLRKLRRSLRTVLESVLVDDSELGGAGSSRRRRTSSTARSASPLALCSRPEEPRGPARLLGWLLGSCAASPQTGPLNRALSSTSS
How it was run: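 Human CRTH2 was stably expressed in L1.2 cells (puromycin-selected) loaded with Fluo-3AM (1 μM final) for 60 min at room temperature. Buffer was 20 mM HEPES pH 7.6, 0.1% BSA, 1 mM probenecid in Hanks'. Cells (2×10^5/well) got compound for 5 min at RT, with fluorescence at 480 nm. IC50 bins: A ≤10 nM, B ≤100 nM, C ≤500 nM, D above; samples were solid-phase products of about 40–90% purity.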

Structure (SMILES)	melting point	IC50 (human CRTH2) [µM]
CCCC(=O)Nc1ccc(Cc2ncc(CC(=O)O)c(N3CCCC3)n2)cc1 [Example 2-36]	130 to 133 °C	0.1 to 0.5
CN(CC(=O)NC1CCCC1)c1nc(Cc2ccc(NCc3ccccc3)cc2)nc(Cl)c1CC(=O)O [Example 5-2]	> 70 °C	> 0.5
CN(CC(=O)NC1CCCC1)c1nc(Cc2ccc(NCc3ccc4ccccc4c3)cc2)nc(Cl)c1CC(=O)O [Example 5-3]	> 96 °C	0.1 to 0.5
CN(C)c1nc(Cc2ccc(NC(=O)c3ccc4ccccc4n3)cc2)nc(N2CCCC2)c1CC(=O)O [Example 7-9]	131 to 133 °C	0.1 to 0.5
CN(C)c1nc(Cc2ccc(NC(=O)c3ccc(Cl)c(Cl)c3)cc2)nc(N2CCCC2)c1CC(=O)O [Example 7-13]	150 to 152 °C	0.1 to 0.5
CN(C)c1nc(Cc2ccc(NC(=O)c3ccccc3-c3ccccc3)cc2)nc(N2CCCC2)c1CC(=O)O [Example 7-14]	132 to 134 °C	> 0.5
CN(C)c1nc(Cc2ccc(NC(=O)c3ccc4ccccc4n3)cc2)nc(N2CCOCC2)c1CC(=O)O [Example 7-17]	205 to 207 °C	> 0.5
CN(C)c1nc(Cc2ccc(NC(=O)c3ccc(Cl)cc3)cc2)nc(N2CCOCC2)c1CC(=O)O [Example 7-18]	216 to 218 °C (dec.)	0.1 to 0.5
CN(C)c1nc(Cc2ccc(NC(=O)c3ccc(Cl)c(Cl)c3)cc2)nc(N2CCOCC2)c1CC(=O)O [Example 7-19]	196 to 198 °C	0.01 to 0.1
CN(C)c1nc(Cc2ccc(NC(=O)c3ccc(C(F)(F)F)cc3)cc2)nc(N2CCOCC2)c1CC(=O)O [Example 7-20]	212 to 213 °C (dec.)	0.01 to 0.1
CN(C)c1nc(Cc2ccc(NC(=O)/C=C/c3ccccc3)cc2)nc(N2CCOCC2)c1CC(=O)O [Example 7-21]	129 to 132 °C	0.01 to 0.1
CN(C)c1nc(Cc2ccc(NC(=O)c3ccccc3Oc3ccccc3)cc2)nc(N2CCCC2)c1CC(=O)O [Example 7-22]	192 to 194 °C	> 0.5
CN(C)c1nc(Cc2ccc(NC(=O)c3cccc(Oc4ccccc4)c3)cc2)nc(N2CCCC2)c1CC(=O)O [Example 7-23]	123 to 125 °C	0.01 to 0.1

Results, then the compound that gave them:

melting point	IC50 (human CRTH2) [µM]	Structure (SMILES)
144 °C	< 0.01	COCCN(C)c1nc(Cc2ccc(NC(=O)c3ccc4ccccc4c3)cc2)nc(Cl)c1CC(=O)O [Example 3-5]
162 °C	< 0.01	CN(C)c1nc(Cc2ccc(NC(=O)/C=C/c3ccc(Cl)cc3)cc2)nc(N(C)C)c1CC(=O)O [Example 7-8]
146 to 149 °C	< 0.01	CN(C)c1nc(Cc2ccc(NC(=O)/C=C/c3ccc(Cl)cc3)cc2)nc(N2CCCC2)c1CC(=O)O [Example 7-10]
151 to 153 °C	0.01 to 0.1	CN(C)c1nc(Cc2ccc(NC(=O)/C=C/c3ccccc3)cc2)nc(N2CCCC2)c1CC(=O)O [Example 7-11]
144 to 147 °C	0.01 to 0.1	CN(C)c1nc(Cc2ccc(NC(=O)c3ccc(C(F)(F)F)cc3)cc2)nc(N2CCCC2)c1CC(=O)O [Example 7-12]
147 to 179 °C	0.01 to 0.1	CN(C)c1nc(Cc2ccc(NC(=O)c3cccc(-c4ccccc4)c3)cc2)nc(N2CCCC2)c1CC(=O)O [Example 7-15]
224 to 226 °C	0.01 to 0.1	CN(C)c1nc(Cc2ccc(NC(=O)c3ccc(-c4ccccc4)cc3)cc2)nc(N2CCCC2)c1CC(=O)O [Example 7-16]
137 to 140 °C	< 0.01	CN(C)c1nc(Cc2ccc(NC(=O)c3ccc(Oc4ccccc4)cc3)cc2)nc(N2CCCC2)c1CC(=O)O [Example 7-24]
192 to 195 °C (dec.)	< 0.01	COc1ccc(/C=C/C(=O)Nc2ccc(Cc3nc(N(C)C)c(CC(=O)O)c(N4CCOCC4)n3)cc2)cc1 [Example 7-25]

— patent US7960393B2, “Pyrimidine derivatives useful for the treatment of diseases mediated by CRTH2” (Actimis Pharmaceuticals, Inc., priority 2002, dated 2011)
